Laboratory results from patent US20110312930A1, “Aryl compounds with aminoalkyl substituents and their use” (BAYER SCHERING PHARMA AKTIENGESELLSCHAFT, priority 2008, published 2011).

System: HCT 116 cells transfected with a luciferase reporter under the control of an HIF-responsive sequence
Experiment: HIF-luciferase assay
Format: cell-based
Settings: Homo sapiens; HCT 116 HIF-luciferase reporter cells, hypoxia chamber (1% O2), 24 h, luminescence
Description: HCT 116 cells were transfected in a stable manner with a plasmid which contained a luciferase reporter under the control of an HIF-responsive sequence. These cells were sown in microtitre plates [20 000 cells/cavity in RPMI 1640 medium with 10% foetal calf serum (FCS) and 100 μg/ml of hygromycin]. Incubation was carried out overnight under standard conditions (5% CO2, 21% O2, 37° C., moistened). The following morning the cells were incubated with various concentrations of the test substances (0-10 μmol/l) in a hypoxia chamber (1% O2). After 24 h, Bright Glo reagent (Promega, Wisconsin, USA) was added in accordance with the manufacturer's instructions, and after 5 min the luminescence was measured. Cells which were incubated under normoxia served as background controls.

| IC50 [nM] | Structure (SMILES) |
| --- | --- |
| 7 | Cc1cc(-c2nc(-c3ccc(C(C)(C)C(F)(F)F)cc3)no2)nn1Cc1ccc(NCCN2CCCC2)nc1 [Example 14, 5-[(5-Methyl-3-{3-[4-(1,1,1-trifluoro-2-methylpropan-2-yl)phenyl]-1,2,4-oxadiazol-5-yl}-1H-pyrazol-1-yl)methyl]-N-[2-(pyrrolidin-1-yl)ethyl]pyridine-2-amine] |
| 8 | Cc1cc(-c2nc(-c3ccc(OC(F)(F)F)cc3)no2)cn1Cc1ccc(NCCN2CCC(O)CC2)nc1 [Example 16] |
| 10 | Cc1cc(-c2nc(-c3ccc(S(=O)(=O)C(F)(F)F)cc3)no2)nn1Cc1ccc(NCCN2CCOCC2)nc1 [Example 22] |
| 10 | Cc1cc(-c2nc(-c3ccc(OC(F)(F)F)cc3)no2)nn1Cc1ccc(NCCN2CCOCC2)nc1 [Example 24] |
| 10 | Cc1cc(-c2nc(-c3ccc(OC(F)(F)F)cc3)no2)nn1Cc1cccc(C(=O)N(C)CCN(C)C)c1 [Example 48, N-[2-(Dimethylamino)ethyl]-N-methyl-3-[(5-methyl-3-{3-[4-(trifluoromethoxy)phenyl]-1,2,4-oxa-diazol-5-yl}-1H-pyrazol-1-yl)methyl]benzenecarboxamide] |
| 10 | Cc1cc(-c2nc(-c3ccc(OC(F)(F)F)cc3)no2)nn1Cc1cccc(OCCN2CCCC2)c1 [Example 57, 5-(5-Methyl-1-{3-[2-(pyrrolidin-1-yl)ethoxy]benzyl}-1H-pyrazol-3-yl)-3-[4-(trifluoromethoxy)-phenyl]-1,2,4-oxadiazole] |
| 9 | Cc1cc(-c2nc(-c3ccc(OC(F)(F)F)cc3)no2)nn1Cc1ccc(NCCN2CCOCC2)cc1 [Example 60, 4-[(5-Methyl-3-{3-[4-(trifluoromethoxy)phenyl]-1,2,4-oxadiazol-5-yl}-1H-pyrazol-1-yl)methyl]-N-[2-(morpholin-4-yl)ethyl]aniline] |
| 10 | Cc1cc(-c2nc(-c3ccc(OC(F)(F)F)cc3)no2)nn1Cc1ccc(SCCN2CCCC2)cc1 [Example 67, 5-[5-Methyl-1-(4-{[2-(pyrrolidin-1-yl)ethyl]sulphanyl}benzyl)-1H-pyrazol-3-yl]-3-[4-(trifluoromethoxy)phenyl]-1,2,4-oxadiazole] |
| 6 | Cc1cc(-c2nc(-c3ccc(C(C)(C)C)cc3)no2)cn1Cc1ccc(NCCN2CCCC2)nc1 [Example 71] |
| 8 | Cc1cc(-c2nc(-c3ccc(OC(F)(F)F)cc3)no2)nn1Cc1ccc(NCCN2CCCC2=O)nc1 [Example 73] |
| 8 | Cc1cc(-c2nc(-c3ccc(OC(F)(F)F)cc3)no2)nn1Cc1ccc(NCCCN2CCCC2=O)nc1 [Example 74] |
| 2.5 | Cc1cc(-c2nc(-c3ccc(OC(F)(F)F)cc3)no2)nn1Cc1ccc(NCCN2CCS(=O)(=O)CC2)nc1 [Example 102, N-[2-(1,1-Dioxidothiomorpholin-4-yl)ethyl]-5-[(5-methyl-3-{3-[4-(trifluoromethoxy)phenyl]-1,2,4-oxadiazol-5-yl}-1H-pyrazol-1-yl)methyl]pyridine-2-amine] |
| 3 | Cc1cc(-c2nc(-c3ccc(OC(F)(F)F)cc3)no2)nn1Cc1ccc(NCCN2CCC(F)(F)CC2)nc1 [Example 103, N-[2-(4,4-Difluoropiperidin-1-yl)ethyl]-5-[(5-methyl-3-{3-[4-(trifluoromethoxy)phenyl]-1,2,4-oxa-diazol-5-yl}-1H-pyrazol-1-yl)methyl]pyridine-2-amine] |
| 1 | Cc1cc(-c2nc(-c3ccc(OC(F)(F)F)cc3)no2)nn1Cc1cccc(OCCN2CCOCC2)c1 [Example 123, 4-(2-{3-[(5-Methyl-3-{3-[4-(trifluoromethoxy)phenyl]-1,2,4-oxadiazol-5-yl}-1H-pyrazol-1-yl)-methyl]phenoxy}ethyl)morpholine] |
| 5 | Cc1cc(-c2nc(-c3ccc(OC(F)(F)F)cc3)no2)nn1Cc1cccc(OCCN(C)C)c1 [Example 124, N,N-Dimethyl-2-{3-[(5-methyl-3-{3-[4-(trifluoromethoxy)phenyl]-1,2,4-oxadiazol-5-yl}-1H-pyrazol-1-yl)methyl]phenoxy}ethanamine] |
